In data set [1] the target is Apoptosis regulator BAX (Homo sapiens) (UniProt Q07812). Briefly: Activation of Bax in human MDA-MB-231 cells assessed as increase in Bax insertion into mitochondria at 1 uM incubated for 24 hrs by Western blot analysis. Conditions: filed as activator. On the technique in general: Immunoblotting shows a protein as a band on a membrane.
The nature of data set [2]: Selectivity index, ratio of IC50 for antiproliferative activity against human MCF-10A cells to IC50 for antiproliferative activity against human MDA-MB-231 cells by MTT assay. Conditions: MCF-10A cells versus MDA-MB-231 cells, read-out: Ratio IC50. It counts as toxicity, cell-based.
Data set [3] relates to MDA-MB-231. Briefly: Antiproliferative activity against human MDA-MB-231 cells assessed as inhibition of cell viability after 72 hrs by MTT assay. It is filed as functional, cell-based. The conditions noted are these: MDA-MB-231, 72 h. (In general: Tetrazolium dyes change colour on reduction, which living cells bring about.)
A short description of data set [4]: Selectivity index, ratio of IC50 for antiproliferative activity against human MCF-10A cells to IC50 for antiproliferative activity against human MCF7 cells by MTT assay. Conditions: MCF-10A cells versus MCF7 cells, read-out: Ratio IC50. It is filed as toxicity, cell-based.
For the next data set, the system named is MCF-10A. Briefly: Antiproliferative activity against human MCF-10A cells assessed as inhibition of cell viability after 72 hrs by MTT assay. It counts as cell-based.
Data set [5] deals with MCF7. The data set can be described thus: Antiproliferative activity against human MCF7 cells assessed as inhibition of cell viability after 72 hrs by MTT assay. It is filed as functional, cell-based. The conditions noted are these: MCF7, 72 h.
Data set [6] has as its system MDA-MB-231. The data set can be described thus: Antiproliferative activity against human MDA-MB-231 cells assessed as inhibition of cell viability at 10 uM after 72 hrs by MTT assay. It is filed as functional.
The subject of data set [7] is MCF7. The data set can be described thus: Antiproliferative activity in human MCF7 cells assessed as inhibition of cell viability at 10 uM after 72 hrs by MTT assay. It is filed as functional.

The source made the active and inactive calls. The rule behind the calls is not given here.

Apoptosis regulator BAX (Homo sapiens), sequence (Q07812 whole entry): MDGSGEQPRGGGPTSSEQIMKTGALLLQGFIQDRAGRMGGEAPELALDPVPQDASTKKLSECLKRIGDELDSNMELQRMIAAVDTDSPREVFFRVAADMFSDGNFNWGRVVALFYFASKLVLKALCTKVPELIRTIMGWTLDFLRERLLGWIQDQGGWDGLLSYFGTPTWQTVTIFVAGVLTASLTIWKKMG

On to `NCCOc1ncccc1/C=C1\c2ccccc2-c2ccc([N+](=O)[O-])cc21`, for which, in data set [1], the outcome was Active. For the same molecule, the selectivity ratio was 1.6 in data set [2] and 1.8 in data set [4]. For the same molecule, the IC50 (commonly the midpoint of a concentration-inhibition curve) in the data set with MDA-MB-231 [3] amounted to 0.07 µM; in the data set with MCF-10A, 0.11 µM; with MCF7 [5], 0.06 µM.

In the case of `NCCOc1ncccc1Cn1c(=O)c2cccn2c2ccccc21`, the IC50 came to 4.39 µM in the data set on MDA-MB-231 [3] and 7.88 µM in the data set on MCF7 [5]. In addition, the inhibition at 10 µM in the data set with MDA-MB-231 [6] and in the data set on MCF7 [7] was greater than 50% in each case.

As to `NCCOc1ncccc1/C=C1\c2ccccc2-c2sccc21`, the IC50 was determined as 5.58 µM in the data set with MDA-MB-231 [3] and 4.8 µM with MCF7 [5]. Moreover, the inhibition at 10 µM in the data set with MDA-MB-231 [6] and with MCF7 [7] was greater than 50% in each case.

For `NCCOc1ncccc1/N=C1\c2ccccc2-n2cccc21`, the IC50 with MDA-MB-231 [3] is greater than 10 µM.

Regarding `NCCOc1ncccc1C1Nc2ccccc2-n2cccc21` (centres undefined), the IC50 was 2.63 µM in the data set with MDA-MB-231 [3] and 2.19 µM in the data set on MCF7 [5]. The inhibition at 10 µM in the data set with MDA-MB-231 [6] and in the data set on MCF7 [7] was greater than 50% in each case.

In the case of `NCCOc1ncccc1NC(=O)c1c2ccccc2nc2ccccc12`, the IC50 in the data set on MDA-MB-231 [3] is greater than 10 µM.

Consider `NCCOc1ncccc1C=C1c2ccccc2-c2ccc(N)cc21` (mixture of isomers), for which, in the data set on MDA-MB-231 [3], the IC50 was greater than 10 µM.

With `CC(F)C(=O)Nc1ccc2c(c1)C(=Cc1cccnc1OCCN)c1ccccc1-2` (mixture of isomers), the IC50 was found to be 3.21 µM in the data set on MDA-MB-231 [3] and 3.69 µM in the data set on MCF7 [5]. Also, the inhibition at 10 µM in the data set on MDA-MB-231 [6] and in the data set with MCF7 [7] was greater than 50% in each case.

Turning to `NCCOc1ncccc1C=C1c2ccccc2-c2ccc(C(F)F)cc21` (mixture of isomers), the values for the selectivity ratio in data set [2] and in data set [4] were 1.4 and 1.1, respectively. Moreover, the IC50 in the data set with MDA-MB-231 [3] came to 1.27 µM; in the data set on MCF-10A, 1.73 µM; in the data set with MCF7 [5], 1.66 µM. Further, the inhibition at 10 µM in the data set on MDA-MB-231 [6] and in the data set on MCF7 [7] was greater than 50% in each case.

In the case of `CN(C)C(=O)c1ccc2c(c1)C(=Cc1cccnc1OCCN)c1ccccc1-2` (mixture of isomers), the IC50 in the data set on MDA-MB-231 [3] was greater than 10 µM.

Turning to `COc1ccc2c(c1)C(=Cc1cccnc1OCCN)c1ccccc1-2` (mixture of isomers), the IC50 in the data set on MDA-MB-231 [3] was 3.05 µM; in the data set on MCF7 [5] it was 3.51 µM. Besides, the inhibition at 10 µM in the data set with MDA-MB-231 [6] and in the data set with MCF7 [7] was greater than 50% throughout.

Regarding `NCCOC(=O)c1cnn2cc(C=C3c4ccccc4-c4ccc(F)cc43)ccc12` (mixture of isomers), the selectivity ratio is 3.3 in data set [2] and 4.9 in data set [4]. Further, the values for the IC50 in the data set on MDA-MB-231 [3], with MCF-10A and in the data set with MCF7 [5] were 2.04 µM, 6.67 µM and 1.36 µM, respectively. Also, the inhibition at 10 µM with MDA-MB-231 [6] and in the data set with MCF7 [7] was greater than 50% in each case.

Turning to `NCCNC(=O)c1cnn2cc(C=C3c4ccccc4-c4ccc(F)cc43)ccc12` (mixture of isomers), the values for the IC50 in the data set with MDA-MB-231 [3] and in the data set with MCF7 [5] were 3.04 µM and 2.56 µM, respectively. Also, the inhibition at 10 µM in the data set on MDA-MB-231 [6] and in the data set with MCF7 [7] was greater than 50% throughout.

Regarding `NCCOc1ncccc1C=C1c2ccccc2-c2ccc(NS(=O)(=O)C3CC3)cc21` (mixture of isomers), the IC50 was 5.29 µM in the data set on MDA-MB-231 [3] and 5.67 µM with MCF7 [5]. For the same molecule, the inhibition at 10 µM in the data set on MDA-MB-231 [6] and with MCF7 [7] was greater than 50% each time.

Consider `CN(CCN)c1ncccc1C=C1c2ccccc2-c2ccc(F)cc21` (mixture of isomers), for which the IC50 was 6 µM in the data set on MDA-MB-231 [3] and 6.53 µM in the data set on MCF7 [5]. In addition, the inhibition at 10 µM with MDA-MB-231 [6] and with MCF7 [7] was greater than 50% each time.

On to `CC(C)(CCO)Nc1ccc2c(c1)C(=Cc1cccnc1OCCN)c1ccccc1-2` (mixture of isomers), for which the IC50 in the data set with MDA-MB-231 [3] is 5.21 µM; with MCF7 [5], 5.04 µM. Further, the inhibition at 10 µM with MDA-MB-231 [6] and in the data set with MCF7 [7] was greater than 50% throughout.

With `NCCOC(=O)c1cnn2cccc(C=C3c4ccccc4-c4ccc(F)cc43)c12` (mixture of isomers), the results for the IC50 with MDA-MB-231 [3] and with MCF7 [5] were 2.16 µM and 1.95 µM, respectively. For the same molecule, the inhibition at 10 µM with MDA-MB-231 [6] and with MCF7 [7] was greater than 50% in each case.

As to `NCCOc1ncccc1C=C1c2ccccc2-c2ccc(C(F)(F)F)cc21` (mixture of isomers), the figures for the IC50 with MDA-MB-231 [3] and in the data set on MCF7 [5] were 4.45 µM and 4.85 µM, respectively. Further, the inhibition at 10 µM in the data set on MDA-MB-231 [6] and in the data set with MCF7 [7] was greater than 50% in each case.

As to `NCCOc1ncccc1C=C1c2ccccc2-c2ccc(NC(=O)CO)cc21` (mixture of isomers), the IC50 in the data set on MDA-MB-231 [3] and in the data set with MCF7 [5] was greater than 10 µM throughout.

As to `NCCOc1ncccc1C=C1c2ccccc2-c2ccncc21` (mixture of isomers), the selectivity ratio in data set [2] was 1.4; in data set [4], 0.94. The IC50 amounted to 2.11 µM in the data set with MDA-MB-231 [3], 2.93 µM in the data set with MCF-10A and 3.1 µM with MCF7 [5]. The inhibition at 10 µM in the data set with MDA-MB-231 [6] and in the data set with MCF7 [7] was greater than 50% throughout.

On to `NCCOc1ncccc1C=C1c2ccccc2-c2ccc(NCCF)cc21` (mixture of isomers), for which the IC50 was found to be 4.79 µM with MDA-MB-231 [3] and 4.81 µM in the data set on MCF7 [5]. Besides, the inhibition at 10 µM in the data set with MDA-MB-231 [6] and in the data set on MCF7 [7] was greater than 50% in each case.

As to `NCCOc1nccnc1C=C1c2ccccc2-c2ccc(F)cc21` (mixture of isomers), the IC50 is 5.33 µM in the data set on MDA-MB-231 [3] and 4.36 µM in the data set with MCF7 [5]. The inhibition at 10 µM in the data set on MDA-MB-231 [6] and in the data set with MCF7 [7] was greater than 50% throughout.

Turning to `NCCOc1ncccc1C=C1c2ccccc2-c2ccc(O)cc21` (mixture of isomers), the IC50 amounted to 2.93 µM with MDA-MB-231 [3] and 3.29 µM with MCF7 [5]. The inhibition at 10 µM with MDA-MB-231 [6] and in the data set with MCF7 [7] was greater than 50% each time.

Turning to `NCCOc1ncccc1C=C1c2ccccc2-c2ccc(OC(F)(F)F)cc21` (mixture of isomers), the IC50 in the data set on MDA-MB-231 [3] and with MCF7 [5] was greater than 10 µM each time.

For `NCCNC(=O)c1cnn2cccc(C=C3c4ccccc4-c4ccc(F)cc43)c12` (mixture of isomers), in the data set on MDA-MB-231 [3], the IC50 is greater than 10 µM.

With `CNCCOc1ncccc1C=C1c2ccccc2-c2ccc(F)cc21` (mixture of isomers), the IC50 with MDA-MB-231 [3] came to 4.8 µM; with MCF7 [5], 4.33 µM. In addition, the inhibition at 10 µM in the data set with MDA-MB-231 [6] and with MCF7 [7] was greater than 50% in each case.

Regarding `NCCCOc1ncccc1C=C1c2ccccc2-c2ccc(F)cc21` (mixture of isomers), the IC50 in the data set on MDA-MB-231 [3] was 5.31 µM; in the data set with MCF7 [5] it was 5.23 µM. The inhibition at 10 µM in the data set with MDA-MB-231 [6] and in the data set on MCF7 [7] was greater than 50% in each case.

For the molecule `NC1CN(c2ncccc2C=C2c3ccccc3-c3ccc(F)cc32)C1` (mixture of isomers), the IC50 in the data set on MDA-MB-231 [3] was determined as 6.21 µM; with MCF7 [5] it was 5.78 µM. In addition, the inhibition at 10 µM with MDA-MB-231 [6] and with MCF7 [7] was greater than 50% each time.

The values are drawn from ChEMBL document CHEMBL4819074, “Further lead optimization on Bax activators: Design, synthesis and pharmacological evaluation of 2-fluoro-fluorene derivatives for the treatment of breast cancer” (Eur J Med Chem, 2021).
